For test [1], the target named is T1, FLT3 (D835Y) (Homo sapiens, UniProt P36888, D835Y).
T1 construct: purchased Reaction Biology Corp. (Malvern, PA, USA)
The test can be described thus: Radiometric HotSpot kinase assay, FLT3 (D835Y). Particulars: ATP 20 μM; peptide substrate 5 μM. The test is classed as biochemical. As for the experimental part:
(§1) Kinase IC50 values were determined by Reaction Biology Corp. (Malvern, PA, USA) in the Radiometric HotSpot™ Assay using recombinantly expressed kinase enzymes. Compound (I) was tested in a 10-dose IC50 curve in duplicate. Enzymes were tested at the Km [ATP] for each enzyme using the Reaction Biology binning structure. Kinase reactions were initiated by the addition of protein or peptide substrate and [γ-^33P]-adenosine triphosphate (ATP). Phosphorylated substrates were captured by spotting of the reaction mix on filter membranes, and enzymatic activity was quantified by liquid scintillation counting. Substrates and ATP concentrations are as follows: • FLT3: Peptide substrate, [EAIYAAPFAKKK], 5 μM: ATP 50 μM • FLT3-ITD (internal tandem duplication): Peptide substrate, [EAIYAAPFAKKK], 20 μM: ATP, 30 μM • FLT3 (D835Y): Peptide substrate, [EAIYAAPFAKKK], 5 μM: ATP 20 μM • TAK1: Casein, 1 mg/mL: ATP, 20 μM

Test [2] deals with FLT3-ITD maturation. The test can be described thus: FLT3-ITD maturation in MOLM-14 cells. Format: cell-based, human. As to conditions: MOLM-14 cells (co-express FLT3-ITD and wild-type FLT3); data not shown.
Test [3] has as its target T2, TAK1/MAP3K7 (Homo sapiens, UniProt O43318).
T2 construct: purchased Reaction Biology Corp. (Malvern, PA, USA)
Briefly: Radiometric HotSpot kinase assay, TAK1. Format: biochemical. As to conditions: ATP 20 μM; casein 1 mg/mL. Here is the method:
as §1

The subject of test [4] is FLT3-ITD-expressing 32D cells. The test can be described thus: Growth inhibition, 32D transfectants. Particulars: 32D transfectant FLT3-ITD, without cytokines. Format: cell-based. Here is the method:
(§2) Cell lines were obtained from American Type Culture Collection (ATCC) and maintained according to the supplier's instructions, and from Dr. Mark Minden (Princess Margaret Cancer Centre, Toronto, Canada). Short tandem repeat (STR) profiling was used to verify authenticity of the cell lines. Peripheral blood from healthy human donors was obtained from the Hematology Malignancy Tissue Bank at the University Health Network. Peripheral blood mononuclear cells (PBMC) were prepared from the blood by density gradient centrifugation using Ficoll-Paque PLUS by manufacturer's instructions (GE Healthcare Life Sciences). […] Compound (I) tartrate was prepared as a 10 mM stock solution in 100% DMSO. The stock solution was diluted with RPMI-1640 (Invitrogen) containing 10% FBS (fetal bovine serum) such that the final concentrations ranged from 300 fM to 300 μM. Aliquots (20 μL) from each concentration were overlaid to 180 μL of pre-seeded cells to achieve final concentrations of 30 fM to 30 μM. After 3 days, cell growth in each well was assessed by Alamar Blue assay reagent (Invitrogen). Raw fluorescence (λEM=590 nm) values were adjusted by subtracting the average of the baseline readings from untreated cells assessed one day after cell seeding. Relative cell growth was calculated by comparing to DMSO-treated cells. […]

Test [5] has as its system Wild-type FLT3-expressing 32D cells. Briefly: Growth inhibition, 32D transfectants. Particulars: 32D transfectant wild-type FLT3, 50 ng/ml human FLT3 ligand. The test is classed as cell-based. Here is the method: as §2
In test [6] the test system is FLT3-ITD-expressing 32D cells (20 ng/ml mouse IL-3). Briefly: Growth inhibition, 32D transfectants with mouse IL-3. The test is classed as cell-based. As to conditions: 32D transfectant FLT3-ITD. As for the experimental part:
as §2

The test system of test [7] is cell surface FLT3-ITD. The test can be described thus: Flow cytometry, cell surface FLT3 in primary human AML cells. The test is classed as cell-based. Particulars: FLT3-ITD positive primary AML cells, viable CD14− blasts, 48 and 72 hours, dose-dependent. Here is the method:
Patient samples were obtained from Dr. Mark Minden (Princess Margaret Cancer Centre, Toronto, Ontario, Canada). FLT3-ITD positive AML cells were treated with the indicated concentrations of Compound (I) for 48 and 72 hours at 37° C. and 5% CO2 and stained with APC-CD45, PECy7-CD38, APC/Fire 750-CD33, PerCP-CD14, PE-FLT3 (Beckman Coulter, Cat. IM2234U), PE/Dazzle 594-CD117 (BioLegend, Cat. #313226) or isotype control antibodies and analyzed on a BD LSRFortessa II flow cytometry analyzer. Data were analyzed using FlowJo software and representative data are shown. Compound (I) treatment increases the cell surface expression of FLT3 and c-KIT in a dose-dependent manner in viable CD14^− AML blast cells. Similar results were obtained in additional FLT3-ITD positive primary AML samples (data not shown).

The test system of test [8] is SLP-76 Ser376 phosphorylation. Briefly: Phospho-SLP-76 (Ser376) sandwich ELISA in anti-CD3 stimulated Jurkat E6.1 cells. The test is classed as cell-based. As to conditions: Homo sapiens, 3 hours pretreatment, anti-CD3 (OKT3) 5 μg/mL 15 minutes. As for the experimental part: Jurkat E6.1 cells were starved overnight in RPMI-1640 medium (Invitrogen) without fetal bovine serum (FBS). Starved cells (2×10^6 per sample in 1 mL) were pretreated with Compound (I) tartrate for 3 hours and then stimulated with 5 μg/mL anti-CD3 antibody (clone OKT3) for 15 minutes. Cells were immediately lysed in cell lysis buffer plus protease and phosphatase inhibitors, and then assayed for SLP-76 Ser376 phosphorylation with the PathScan Phospho-SLP-76 (Ser376) Sandwich ELISA Kit according to the kit instructions (Cell Signaling Technology, Inc.). Duplicate data points for each concentration were collected (Molecular Devices M5). Raw absorbance (A=450 nm) values were background subtracted and then individual values were averaged for each Compound (I) tartrate concentration. The cellular EC50 was determined using a simple one-site dose-response curve fitting model (XLfit4, IDBS).

Structures can show the parent of a compound that is named as a salt.

T2 sequence (O43318 1-303 limits assumed): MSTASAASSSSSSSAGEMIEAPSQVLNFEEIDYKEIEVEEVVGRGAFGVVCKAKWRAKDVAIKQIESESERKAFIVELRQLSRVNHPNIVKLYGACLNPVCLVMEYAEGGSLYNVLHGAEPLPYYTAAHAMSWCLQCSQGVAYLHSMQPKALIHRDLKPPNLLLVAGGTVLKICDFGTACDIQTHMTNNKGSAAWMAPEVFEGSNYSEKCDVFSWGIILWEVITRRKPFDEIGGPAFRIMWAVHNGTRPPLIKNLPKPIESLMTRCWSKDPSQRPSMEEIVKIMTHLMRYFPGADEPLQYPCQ

As usually defined, the IC50 is the concentration needed to halve the response being measured. A word on the EC50: it is the concentration needed to bring the measured effect to its halfway point. For the compound `CN1CCN(c2ccc3nc(-c4c(N)c5ccsc5[nH]c4=O)[nH]c3c2)CC1` [Compound (I) tartrate, 4-amino-5-(6-(4-methylpiperazin-1-yl)-1H-benzo[d]imidazol-2-yl)thieno[2,3-b]pyridin-6(7H)-one], the 50% inhibitory concentration (IC50) in test [1] was found to be 0.023 nM; in test [3] it was 18 nM; in test [4], 6.3 nM; in test [5] it was 1650 nM; in test [6], 1440 nM. In addition, the FLT3-ITD maturation result in test [2] was “increase”. The “cell surface expression of FLT3” value in test [7] is “increases”. For the same compound, the 50% effective concentration (EC50) in test [8] was 24 nM.
